According to patent US10544125B2, “Process for preparing an anti-cancer agent, 1-((4-(4-fluoro-2-methyl-1H-indol-5-yloxy)-6-methoxyquinolin-7-yloxy)methyl)cyclopropanamine, its crystalline form and its salts” (Advenchen Pharmaceuticals, LLC, priority 2015, dated 2020):
In brackets after ≈: the same amount, converted by molar mass. Where a name gives a salt, the structure may show the parent alone.

How the values were obtained:
PANC-1 (pancreatic) = assay: In vitro MTT (proliferation) assay; assay type: cell-based; conditions: PANC-1 cancer cell line
Experimental: (§1) In vitro MTT (proliferation) assay was performed with compound from above examples to give following inhibition results: […]

NC1-H157 (lung) = assay: In vitro MTT (proliferation) assay; assay type: cell-based; conditions: NC1-H157 cancer cell line
Experimental: as §1

MKN45 (gastric) = assay: In vitro MTT (proliferation) assay; assay type: cell-based; conditions: MKN45 cancer cell line
Experimental: as §1

SKOV3 (ovarian) = assay: In vitro MTT (proliferation) assay; assay type: cell-based; conditions: SKOV3 cancer cell line
Experimental: as §1

MDA-MB-231 (breast) = assay: In vitro MTT (proliferation) assay; assay type: cell-based; conditions: MDA-MB-231 cancer cell line
Experimental: as §1

SW579 (thyroid) = assay: In vitro MTT (proliferation) assay; assay type: cell-based; conditions: SW579 cancer cell line
Experimental: as §1

HCT1 16 (colon) = assay: In vitro MTT (proliferation) assay; assay type: cell-based; conditions: HCT1 16 cancer cell line
Experimental: as §1

Hela (cervical) = assay: In vitro MTT (proliferation) assay; assay type: cell-based; conditions: Hela cancer cell line
Experimental: as §1

Saos-2 (sarcoma) = assay: In vitro MTT (proliferation) assay; assay type: cell-based; conditions: Saos-2 cancer cell line
Experimental: as §1

PC-3 (prostate) = assay: In vitro MTT (proliferation) assay; assay type: cell-based; conditions: PC-3 cancer cell line
Experimental: as §1

BEL7404 (liver) = assay: In vitro MTT (proliferation) assay; assay type: cell-based; conditions: BEL7404 cancer cell line
Experimental: as §1

[1] = Conventional water solubility test; assay type: physicochemical
Excerpt: Conventional water solubility test has been conducted to give the following results: […]

Ishikawa (endometrial) = assay: In vitro MTT (proliferation) assay; assay type: cell-based, human; conditions: Ishikawa cancer cell line
Experimental: as §1

laser-induced CNV = assay: Mouse model of laser-induced choroidal neovascularization (CNV); assay type: in vivo, C57 BL/6 mice; conditions: for reduction in average size of laser-induced CNV: C57 BL/6 mice, day -1 to day 10, FIG. 18
Experimental: A mouse model of laser-induced choroidal neovascularization (CNV)
(1) Experiments were performed in C57 BL/6 mice at 10 to 12 weeks of age. Laser CNV was induced with a 532 nm diode laser mounted on a slit lamp, using […], 100 ms duration and 100 mW laser energy. Each eye received 4 laser burns. Stock solution of AL3818-H1 was made by dissolving the compound in water to 25 mg/ml concentration, and further diluted to working solution of either 250 or 25 μg/ml in water. Mice were orally gavaged at dosage of 2.5 or 0.25 mg/kg body weight, in volume of 200 μl per 20 gram of body weight, once every day starting at one day before laser treatment until 10 days afterwards. Control group mice will receive gavage with water which is used to dissolve the compound. By the end of the experiment, mice were subjected to fluorescence angiography to exclude the spots with hemorrhage and other mechanic injuries caused by the procedures. Mice were sacrificed and CNV size was measured by immunostaining of RPE/choroid flat mount co-stained with FITC-conjugated isolectin B4 and anti-ICAM2 antibody. For groups of control, 0.25 mg/kg and 2.5 mg/kg, we examined 43, 44 and 49 eyes on RPE/choroid flat mount. After immunostaining, images were taken on a Zeiss fluorescence microscope. CNV size was measured in Image J software. […] (2) The potential synergistic or additive effects between AL3818-M and anti-VEGF antibody was also studied. Immediately after laser burn, mice were treated with a monoclonal VEGF neutralizing antibody from R&D Systems (mAb AF564) at 1 μg dosage by intravitreal injection. We had 4 experimental groups: control (treated with water), AL3818-M, anti-VEGF, and AL3818-M+anti-VEGF. A total of 75 laser spots were analyzed. Mice in control or AL3818-M alone group received the intravitreal injection of saline in the same 2 μl volume.

IC50 (PANC-1 (pancreatic); MTT (proliferation) assay) | IC50 (NC1-H157 (lung)) | IC50 (MKN45 (gastric)) | IC50 (SKOV3 (ovarian); MTT (proliferation) assay) | IC50 (MDA-MB-231 (breast); MTT (proliferation) assay) | IC50 (SW579 (thyroid)) | IC50 (HCT1 16 (colon); MTT (proliferation) assay) | IC50 (Hela (cervical)) | IC50 (Saos-2 (sarcoma); MTT (proliferation) assay) | IC50 (PC-3 (prostate)) | IC50 (BEL7404 (liver)) | water solubility [1] | solubility [1] | Compound | IC50 (Ishikawa (endometrial)) | also measured
1.15 µM | 2.02 µM | 2.65 µM | 6.56 µM | 5.37 µM | 1.15 µM | 4.62 µM | 3.94 µM | 5.49 µM | 3.62 µM | 1.15 µM | – | 500 µg/mL | COc1cc2c(Oc3ccc4[nH]c(C)cc4c3F)ccnc2cc1OCC1(N)CC1.O=C(O)/C=C\C(=O)O.O=C(O)/C=C\C(=O)O [AL3818-M, 1-((4-(4-Fluoro-2-methyl-1H-indol-5-yloxy)-6-methoxy-quinolin-7-yloxy)-methyl)cyclopropanamine Bismaleic Acid Salt] | 1.34 µM | reduction in laser CNV as compared to the control group (laser-induced CNV; 0.15 mg/kg together with 1 μg anti-VEGF antibody (mAb AF564) intravitreal, P<0.01, FIG. 19): ~30%
1.24 µM | 2.28 µM | 4.16 µM | 7.6 µM | 6.1 µM | 2.61 µM | 3.94 µM | 4.66 µM | 5.68 µM | 4.41 µM | 1.43 µM | – | 100 µg/mL | COc1cc2c(Oc3ccc4[nH]c(C)cc4c3F)ccnc2cc1OCC1(N)CC1.O=C(O)CCC(=O)O [AL3818-S, 1-((4-(4-Fluoro-2-methyl-1H-indol-5-yloxy)-6-methoxy-quinolin-7-yloxy)methyl)cyclopropanamine Succinic Acid Salt] | 1.32 µM | –

Further lines, the compound ahead of its results:

Compound | IC50 (PANC-1 (pancreatic); MTT (proliferation) assay) | IC50 (NC1-H157 (lung)) | IC50 (MKN45 (gastric)) | IC50 (SKOV3 (ovarian); MTT (proliferation) assay) | IC50 (MDA-MB-231 (breast); MTT (proliferation) assay) | IC50 (SW579 (thyroid)) | IC50 (HCT1 16 (colon); MTT (proliferation) assay) | IC50 (Hela (cervical)) | IC50 (Saos-2 (sarcoma); MTT (proliferation) assay) | IC50 (PC-3 (prostate)) | IC50 (BEL7404 (liver)) | water solubility [1] | solubility [1] | IC50 (Ishikawa (endometrial)) | also measured
COc1cc2c(Oc3ccc4[nH]c(C)cc4c3F)ccnc2cc1OCC1(N)CC1 [AL3818-F, 1-((4-(4-Fluoro-2-methyl-1H-indol-5-yloxy)-6-methoxyquinolin-7-yloxy)methyl)cyclopropanamine] | 1.34 µM | 1.83 µM | 3.11 µM | 5.97 µM | 5.56 µM | 1 µM | 3.25 µM | 3.23 µM | 5.13 µM | 5.11 µM | 0.93 µM | 20 µg/mL (≈ 49.1 µM) | – | 1.04 µM | –
COc1cc2c(Oc3ccc4[nH]c(C)cc4c3F)ccnc2cc1OCC1(N)CC1 [AL3818-H1, 1-((4-(4-Fluoro-2-methyl-1H-indol-5-yloxy)-6-methoxy-quinolin-7-yloxy)-methyl)cyclopropanamine Bishydrochloride Acid Salt] | – | 7.18 µM | 1.77 µM | – | – | 2.33 µM | – | – | – | 5.53 µM | 2.75 µM | 6000 µg/mL | – | 5.67 µM | IC50 (PANC-1 (pancreatic); Homo sapiens, PANC-1, MTT (proliferation) assay): 1.58 µM; IC50 (SKOV3 (ovarian); Homo sapiens, SK-OV-3, MTT (proliferation) assay): 5.34 µM; IC50 (MDA-MB-231 (breast); Homo sapiens, MDA-MB-231, MTT (proliferation) assay): 10.2 µM; IC50 (HCT1 16 (colon); Homo sapiens, HCT-116, MTT (proliferation) assay): 3.45 µM; IC50 (Hela (cervical); Homo sapiens, HeLa): 3.7 µM; IC50 (Saos-2 (sarcoma); Homo sapiens, SAOS-2, MTT (proliferation) assay): 4.68 µM; reduction in average size of laser-induced CNV (laser-induced CNV; oral gavage 0.25 mg/kg body weight once daily): ~70%; reduction in average size of laser-induced CNV (laser-induced CNV; oral gavage 2.5 mg/kg body weight once daily): ~70%
COc1cc2c(Oc3ccc4[nH]c(C)cc4c3F)ccnc2cc1OCC1(N)CC1.Cl.Cl.O [AL3818-H2, 1-((4-(4-Fluoro-2-methyl-1H-indol-5-yloxy)-6-methoxy-quinolin-7-yloxy)methyl)cyclopropanamine bishydrochloridehydrate Acid Salt] | 1.55 µM | 2.29 µM | 3.9 µM | 5.7 µM | 5.71 µM | 1.29 µM | 3.34 µM | 4.07 µM | 4.98 µM | 3.88 µM | 1.74 µM | 7000 µg/mL | – | 1.56 µM | –
